Reference: patent US8288387B2, “Napthalimide-benzimidazole hybrids as potential antitumor agents and process for the preparation thereof” (Council of Scientific & Industrial Research, priority 2008, dated 2012)

What was measured:
T-47D [1] = test: In vitro one dose primary anticancer assay, T-47D; type: cell-based, human; settings: Breast (T-47D), 10^−5 Molar concentration
Protocol: (§1) Anticancer activity: In vitro biological activity studies were carried out at the National Cancer Institute (USA).
(§2) The compounds 5a-b evaluated for in vitro anticancer activity against sixty human tumour cells derived from nine cancer types (leukemia, non-small-cell lung, colon, CNS, melanoma, ovarian, prostate, and breast cancer) as shown in Table 1. For each compound, dose response curves for each cell line were measured at a minimum of five concentrations at 10 fold dilutions. A protocol of 48 h continuous drug exposure was used and a sulforhodamine B (SRB) protein assay was used to estimate cell viability or growth. The concentration causing 50% cell growth inhibition (GI50), total cell growth inhibition (TGI 0% growth) and 50% cell death (LC50, −50% growth) compared with the control was calculated. […] The MG MID of log TGI and log LC50 have shown similar pattern to the log GI50 MG MID. The other compounds 9a-c evaluated for in vitro one dose anticancer activity against nine human tumor cell panels containing sixty cell lines in percent growth inhibition values are listed in Table 3.

OVCAR8 = test: In vitro one dose primary anticancer assay, OVCAR8; type: cell-based, human; settings: Ovarian (OVCAR8), 10^−5 Molar concentration
Protocol: as §1, §2

HL-60 = test: In vitro one dose primary anticancer assay, HL-60; type: cell-based, human; settings: Leukemia (HL-60), 10^−5 Molar concentration
Protocol: as §1, §2

UO-31 = test: In vitro one dose primary anticancer assay, UO-31; type: cell-based, human; settings: Renal (UO-31), 10^−5 Molar concentration
Protocol: as §1, §2

SF-295 = test: In vitro one dose primary anticancer assay, SF-295; type: cell-based, human; settings: CNS (SF-295), 10^−5 Molar concentration
Protocol: as §1, §2

K-562 = test: NCI in vitro anticancer SRB assay, K-562; type: cell-based, human; settings: K-562, Leukemia
Protocol: as §1, §2

EKVX = test: NCI in vitro anticancer SRB assay, EKVX; type: cell-based, human; settings: Non-Small Cell Lung Cancer
Protocol: as §1, §2

NCI-H322M = test: NCI in vitro anticancer SRB assay, NCI-H322M; type: cell-based, human; settings: Non-Small Cell Lung Cancer
Protocol: as §1, §2

HCT-116 = test: NCI in vitro anticancer SRB assay, HCT-116; type: cell-based, human; settings: HCT-116, Colon Cancer
Protocol: as §1, §2

KM12 = test: NCI in vitro anticancer SRB assay, KM12; type: cell-based, human; settings: KM12, Colon Cancer
Protocol: as §1, §2

SW-620 = test: NCI in vitro anticancer SRB assay, SW-620; type: cell-based, human; settings: SW-620, Colon Cancer
Protocol: as §1, §2

SF-539 = test: NCI in vitro anticancer SRB assay, SF-539; type: cell-based, human; settings: SF-539, CNS Cancer
Protocol: as §1, §2

U251 = test: NCI in vitro anticancer SRB assay, U251; type: cell-based, human; settings: U251, CNS Cancer
Protocol: as §1, §2

MALME-3M = test: NCI in vitro anticancer SRB assay, MALME-3M; type: cell-based, human; settings: Melanoma
Protocol: as §1, §2

SK-MEL-28 = test: NCI in vitro anticancer SRB assay, SK-MEL-28; type: cell-based, human; settings: SK-MEL-28, Melanoma
Protocol: as §1, §2

SK-MEL-5 = test: NCI in vitro anticancer SRB assay, SK-MEL-5; type: cell-based, human; settings: SK-MEL-5, Melanoma
Protocol: as §1, §2

OVCAR-4 = test: NCI in vitro anticancer SRB assay, OVCAR-4; type: cell-based, human; settings: OVCAR-4, Ovarian Cancer
Protocol: as §1, §2

786-0 = test: NCI in vitro anticancer SRB assay, 786-0; type: cell-based, human; settings: 786-0, Renal Cancer
Protocol: as §1, §2

RXF 393 = test: NCI in vitro anticancer SRB assay, RXF 393; type: cell-based, human; settings: RXF 393, Renal Cancer
Protocol: as §1, §2

DU 145 = test: NCI in vitro anticancer SRB assay, DU 145; type: cell-based, human; settings: DU 145, Prostate Cancer
Protocol: as §1, §2

MCF7 = test: NCI in vitro anticancer SRB assay, MCF7; type: cell-based, human; settings: MCF7, Breast Cancer
Protocol: as §1, §2

MDA-MB-231/ATCC = test: NCI in vitro anticancer SRB assay, MDA-MB-231/ATCC; type: cell-based, human; settings: Breast Cancer
Protocol: as §1, §2

HS 578T = test: NCI in vitro anticancer SRB assay, HS 578T; type: cell-based, human; settings: Breast Cancer
Protocol: as §1, §2

T-47D [2] = test: NCI in vitro anticancer SRB assay, T-47D; type: cell-based, human; settings: Breast Cancer
Protocol: as §1, §2

BT-549 = test: NCI in vitro anticancer SRB assay, BT-549; type: cell-based, human; settings: BT-549, Breast Cancer
Protocol: as §1, §2

sixty human tumour cells = test: In vitro cytotoxicity, mean graph midpoints over all cell lines; type: cell-based; settings: mean graph midpoint
Protocol: as §1, §2

SNB-75 = test: NCI in vitro anticancer SRB assay, SNB-75; type: cell-based; settings: Homo sapiens, SNB-75, CNS Cancer
Protocol: as §1, §2

[3] = log10 of drug concentration causing 50% cell death (−50%)
[4] = log10 of drug concentration causing total cell growth inhibition (0% growth)
[5] = log10 of drug molar concentration causing 50% cell growth inhibition
[6] = Homo sapiens, 48 h drug exposure, SRB
[7] = Homo sapiens, repeat test values

## 2-{4-[4-(4-[4-(6-[4-methylpiperazino]-2-benzimidazolyl)phenoxy]butyl)piperazino]butyl}napthalimide [Compound 9a]
T-47D [1]
  % GI (percent growth inhibition): 64%
OVCAR8
  % GI (percent growth inhibition): 77%
HL-60
  % GI (percent growth inhibition): 84%
UO-31
  % GI (percent growth inhibition): 85%
SF-295
  % GI (percent growth inhibition): 71%

## 2-{4-[4-(6-morpholino-2-benzimidazolyl)phenoxy]butyl}naphthalimide [Compound 5b]
K-562; 48 h drug exposure, SRB
  GI50: 2970 nM
K-562; repeat test values
  GI50: 3250 nM
EKVX; 48 h drug exposure, SRB
  GI50: 12200 nM
EKVX; repeat test values
  GI50: 25400 nM
NCI-H322M; 48 h drug exposure, SRB
  GI50: 110 nM
NCI-H322M; repeat test values
  GI50: 40700 nM
HCT-116; 48 h drug exposure, SRB
  GI50: 1760 nM
KM12; 48 h drug exposure, SRB
  GI50: 1140 nM
KM12; repeat test values
  GI50: 7250 nM
SW-620; 48 h drug exposure, SRB
  GI50: 3190 nM
SW-620; repeat test values
  GI50: 4490 nM
SF-539; 48 h drug exposure, SRB
  GI50: 1700 nM
SF-539; repeat test values
  GI50: 1600 nM
U251; 48 h drug exposure, SRB
  GI50: 1410 nM
U251; repeat test values
  GI50: 1660 nM
MALME-3M; 48 h drug exposure, SRB
  GI50: 90 nM
MALME-3M; repeat test values
  GI50: 3340 nM
SK-MEL-28; 48 h drug exposure, SRB
  GI50: 1300 nM
SK-MEL-28; repeat test values
  GI50: 1560 nM
SK-MEL-5; 48 h drug exposure, SRB
  GI50: 1440 nM
SK-MEL-5; repeat test values
  GI50: 1770 nM
OVCAR-4; 48 h drug exposure, SRB
  GI50: 1470 nM
OVCAR-4; repeat test values
  GI50: 2210 nM
786-0; 48 h drug exposure, SRB
  GI50: 1210 nM
786-0; repeat test values
  GI50: 1370 nM
RXF 393; 48 h drug exposure, SRB
  GI50: 850 nM
RXF 393; repeat test values
  GI50: 340 nM
DU 145; 48 h drug exposure, SRB
  GI50: 3270 nM
DU 145; repeat test values
  GI50: 4560 nM
MCF7; 48 h drug exposure, SRB
  GI50: 3330 nM
MCF7; repeat test values
  GI50: 2560 nM
MDA-MB-231/ATCC; 48 h drug exposure, SRB
  GI50: 2510 nM
MDA-MB-231/ATCC; repeat test values
  GI50: 4250 nM
HS 578T; 48 h drug exposure, SRB
  GI50: 990 nM
HS 578T; repeat test values
  GI50: 4680 nM
T-47D [2]; 48 h drug exposure, SRB
  GI50: 2200 nM
T-47D [2]; repeat test values
  GI50: 4320 nM
BT-549; 48 h drug exposure, SRB
  GI50: 1450 nM
BT-549; repeat test values
  GI50: 1540 nM
Sixty human tumour cells; [3]
  Log LC50 MG MID: −4.46
Sixty human tumour cells; [4]
  Log TGI MG MID: −4.94
Sixty human tumour cells; [5]
  Log GI50 MG MID: −5.54
Sixty human tumour cells; repeated test values
  Log GI50 MG MID: −5.35
  Log LC50 MG MID: −4.27
  Log TGI MG MID: −4.71

## 2-{4-[4-(4-[4-(6-morpholino-2-benzimidazolyl)phenoxy]butyl)piperazino]butyl}napthalimide [Compound 9b]
T-47D [1]
  % GI (percent growth inhibition): 50%
OVCAR8
  % GI (percent growth inhibition): 78%
HL-60
  % GI (percent growth inhibition): 50%
UO-31
  % GI (percent growth inhibition): 68%
SF-295
  % GI (percent growth inhibition): 50%

## CN1CCN(c2ccc3nc(-c4ccc(OCCCN5C(=O)c6cccc7cccc(c67)C5=O)cc4)[nH]c3c2)CC1 [Compound 5a, 2-{3-[4-(6-[4-methylpiperazino]2-benzimidazolyl)phenoxy]propyl}napthalimide]
K-562; Homo sapiens, K562, 48 h drug exposure, SRB
  GI50: 490 nM
K-562; Homo sapiens, K562, repeat test values
  GI50: 1580 nM
EKVX; [6]
  GI50: 1370 nM
EKVX; [7]
  GI50: 1830 nM
NCI-H322M; [6]
  GI50: 1810 nM
NCI-H322M; [7]
  GI50: 1640 nM
HCT-116; [6]
  GI50: 1760 nM
HCT-116; [7]
  GI50: 1640 nM
KM12; [6]
  GI50: 1720 nM
KM12; [7]
  GI50: 2030 nM
SW-620; [6]
  GI50: 1700 nM
SW-620; [7]
  GI50: 1830 nM
SF-539; [6]
  GI50: 1640 nM
SF-539; [7]
  GI50: 1860 nM
SNB-75; 48 h drug exposure, SRB
  GI50: 20 nM
SNB-75; repeat test values
  GI50: 1770 nM
U251; Homo sapiens, U-251, 48 h drug exposure, SRB
  GI50: 1780 nM
U251; Homo sapiens, U-251, repeat test values
  GI50: 1970 nM
MALME-3M; [6]
  GI50: 7660 nM
MALME-3M; [7]
  GI50: 2560 nM
SK-MEL-28; [6]
  GI50: 1480 nM
SK-MEL-28; [7]
  GI50: 1800 nM
SK-MEL-5; [6]
  GI50: 1690 nM
SK-MEL-5; [7]
  GI50: 1600 nM
OVCAR-4; [6]
  GI50: 1580 nM
OVCAR-4; [7]
  GI50: 1850 nM
786-0; [6]
  GI50: 1530 nM
786-0; [7]
  GI50: 1740 nM
RXF 393; [7]
  GI50: 10000 nM
DU 145; [6]
  GI50: 1450 nM
DU 145; [7]
  GI50: 1740 nM
MCF7; [6]
  GI50: 1440 nM
MCF7; [7]
  GI50: 1500 nM
MDA-MB-231/ATCC; [6]
  GI50: 1510 nM
MDA-MB-231/ATCC; [7]
  GI50: 1410 nM
HS 578T; [6]
  GI50: 2100 nM
HS 578T; [7]
  GI50: 2110 nM
T-47D [2]; Homo sapiens, T47D, 48 h drug exposure, SRB
  GI50: 1540 nM
T-47D [2]; Homo sapiens, T47D, repeat test values
  GI50: 2660 nM
BT-549; [7]
  GI50: 4800 nM
Sixty human tumour cells; [3]
  Log LC50 MG MID: −4.20
Sixty human tumour cells; [4]
  Log TGI MG MID: −4.80
Sixty human tumour cells; [5]
  Log GI50 MG MID: −5.34
Sixty human tumour cells; repeated test values
  Log GI50 MG MID: −5.62
  Log LC50 MG MID: −4.39
  Log TGI MG MID: −5.08

## 2-{5-[4-(5-[4-(6-morpholino-2-benzimidazolyl)phenoxy]pentyl)piperazino]pentyl}napthalimide [Compound 9c]
T-47D [1]
  % GI (percent growth inhibition): 99%
OVCAR8
  % GI (percent growth inhibition): 89%
HL-60
  % GI (percent growth inhibition): 97%
UO-31
  % GI (percent growth inhibition): 96%
SF-295
  % GI (percent growth inhibition): 84%
